ChEMBL document CHEMBL5500322, “The significance of persisters in tuberculosis drug discovery: Exploring the potential of targeting the glyoxylate shunt pathway” (Eur J Med Chem, 2024)
≈ marks a conversion by molar mass, not a printed value.

Experiments:
[1] = system: Mycobacterium tuberculosis; assay: Antimycobacterial activity against Mycobacterium tuberculosis assessed as reduction in bacterial growth; format: functional
[2] = system: Mycobacterium tuberculosis; assay: Binding affinity to Mycobacterium tuberculosis isocitrate lyase assessed as inactivation constant
[3] = Binding affinity to Mycobacterium tuberculosis Malate synthase assessed as inhibition constant
[4] = Inhibition of Mycobacterium tuberculosis isocitrate lyase
[5] = system: Mycobacterium tuberculosis; assay: Inhibition of Mycobacterium tuberculosis isocitrate lyase at 0.05 microg/ml relative to control; settings: dose 0.05 µg/ml
Escherichia coli = assay: Antibacterial activity against Escherichia coli assessed as reduction in bacterial growth; format: functional, organism-based
[6] = Inhibition of N-terminal His-tagged Mycobacterium tuberculosis malate synthase expressed in Escherichia coli BL21 (DE3)
[7] = system: Mycobacterium tuberculosis; assay: Inhibition of Mycobacterium tuberculosis malate synthase at 1 uM relative to control
[8] = Binding affinity to indigofera isocitrate lyase assessed as inhibition of constant; set-up: species or system Vogesella indigofera
[9] = Inhibition of N-terminal His-tagged isocitrate lyase (unknown origin) expressed in Escherichia coli BL21 (DE3)
[10] = system: Mycobacterium tuberculosis; assay: Antibacterial activity against Mycobacterium tuberculosis H37Rv (ATCC 27294) assessed as bacterial growth inhibition incubated for 7 days by microdilution alamarBlue assay; format: functional; settings: 168 h, time 7 day
[11] = system: Mycobacterium tuberculosis; assay: Antimycobacterial activity against Mycobacterium tuberculosis H37Rv assessed as reduction in bacterial growth measured after 7 days by broth dilution method; format: functional; settings: 168 h, time 7 day
[12] = system: Mycobacterium tuberculosis; assay: Antimycobacterial activity against Mycobacterium tuberculosis H37Rv assessed as inhibition of bacterial growth incubated for 24 hrs by alamar blue assay; format: functional

Structure (SMILES): Nc1ccc(C(=O)O)c(O)c1 [AMINOSALICYLIC ACID]
- MIC [1]: ≥ 125 µM

Structure (SMILES): O=C(O)[C@@H](C[N+](=O)[O-])[C@@H](O)C(=O)O
- Kinact [2]: 1.3 10^3/M.s

Structure (SMILES): O=CC(=O)O [GLYOXYLATE]
- Ki [3]: 900 µM

Structure (SMILES): CCCCCCCCCCCCC(=O)NNC(=O)c1c(O)c2ccccc2n(CC)c1=O
- IC50 [4]: 134.4 µg/mL (≈ 303 µM)

Structure (SMILES): COc1ccc2cc(CCC(=O)CC(Nc3ccc(C(=O)O)cc3)c3ccc(Cl)cc3)ccc2c1 (centres undefined)
- inhibition [5]: 57.4%

Structure (SMILES): O=C(O)[C@H]1O[C@H]1C(=O)O
- Kinact [2]: 0.01 10^3/M.s

Structure (SMILES): Nc1ccc(S(=O)(=O)Nc2nccs2)cc1 [SULFATHIAZOLE]
- MIC [1]: ≥ 125 µM

Structure (SMILES): O=C(O)C(=O)CBr [BROMOPYRUVATE]
- IC50 (Escherichia coli): 3 µM

Structure (SMILES): O=C(O)/C(O)=C/C(=O)c1ccccc1
- IC50 [6]: 2 µM

Structure (SMILES): O=C(O)CC(O)C(=O)O (centres undefined)
- inhibition [7]: 50%

Structure (SMILES): C=C(CC(=O)O)C(=O)O [ITACONATE]
- Ki [8]: 120 µM

Structure (SMILES): O=C(O)CC[N+](=O)[O-]
- Ki [8]: 120 µM

Structure (SMILES): COC(=O)/C=C/C(=O)c1ccc(OC)cc1
- IC50 ([9]; read-out: IC50): 30.9 µM
- MIC [10]: 0.25 µg/mL (≈ 1.14 µM)

Structure (SMILES): COc1ccc2c(c[n+](C)c3c4cc5c(cc4ccc23)OCO5)c1OC [CHELERYTHRINE]
- MIC [11]: 8 µg/mL

Structure (SMILES): O=c1ccc2ccc(O)c(O)c2o1 [DAPHNETIN]
- IC50 [9]: 4.34 µg/mL
- MIC [12]: 128 µg/mL (≈ 719 µM)

Structure (SMILES): O=C(O)C(=O)O [OXALIC ACID]
- Ki [3]: 400 µM

Structure (SMILES): C=C(OP(=O)(O)O)C(=O)O [PHOSPHOENOLPYRUVATE]
- Ki [3]: 200 µM
